Values belong to the molecule of their own block, whether it stands above or below them.
Assays:
[1] = target: T1, Trypsin from porcine pancreas (Sus scrofa, UniProt P00761); assay: Inhibition of trypsin activity, fluorescence microplate assay with Z-L-arginine-4-methyl-7-coumarinylamide substrate; type: biochemical; conditions: for effect on the activity of trypsin: pH 7, 30 minutes
T1 construct: from tissue; host or cells: porcine pancreas
Protocol: A dilute solution of phosphate-buffered saline (PBS) was prepared at a concentration of 0.3 mM phosphate (pH7), and used to dissolve calcium chloride dihydrate or magnesium chloride at a concentration of 0.3 mg/ml. Trypsin from porcine pancreas was dissolved in the Ca/PBS buffer, in either the presence or absence of calcium, at a concentration of trypsin at 0.02 mg/ml. 5 ml aliquots of disodium EDTA (dihydrate) solution were prepared in PBS with and without calcium or magnesium at doubling dilutions from 8 mg/ml downwards, and the pH of each solution adjusted to 7. Trypsin substrate (namely Z-L-arginine-4-methyl-7-coumarinylamide HCl) was dissolved in DMSO at a concentration of 0.125 mg/ml, then diluted 100-fold in Ca/PBS buffer. EDTA solutions were dispensed into the wells of a black microplate (60 ul per well) then 10 ul of trypsin solution was added, followed by 10 ul of substrate. The reaction was allowed to proceed for 30 minutes, and the extent of reaction determined in a fluorescence microplate reader by measuring the fluorescence of the reaction product (coumarin) at excitation wavelength 365 nm, emission 440 nm.
A dilute solution of phosphate-buffered saline (PBS) was prepared at a concentration of 0.3 mM phosphate (pH7), and used to dissolve calcium chloride dihydrate at a concentration of 0.3 mg/ml. Trypsin from porcine pancreas was dissolved in the Ca/PBS buffer at a concentration of 0.02 mg/ml trypsin. 5 ml aliquots of disodium EGTA (dihydrate) solution were prepared in PBS at doubling dilutions from 8 mg/ml downwards, and the pH of each solution adjusted to 7. Trypsin substrate (namely Z-L-arginine-4-methyl-7-coumarinylamide HCl) was dissolved in DMSO at a concentration of 0.125 mg/ml, then diluted 100-fold in Ca/PBS buffer. EGTA solutions were dispensed into the wells of a black microplate (60 ul per well) then 10 ul of trypsin solution was added, followed by 10 ul of substrate. The reaction was allowed to proceed for 30 minutes, and the extent of reaction determined in a fluorescence microplate reader by measuring the fluorescence of the reaction product (coumarin) at excitation wavelength 365 nm, emission 440 nm.
A dilute solution of phosphate-buffered saline (PBS) was prepared at a concentration of 0.3 mM phosphate (pH7), and used to dissolve calcium chloride dihydrate at a concentration of 0.3 mg/ml. Trypsin from porcine pancreas was dissolved in the buffer, in either the presence or absence of calcium, at a concentration of 0.02 mg/ml. 5 ml aliquots of disodium EGTA (dihydrate) solution and phenanthroline (Low concentrations of phenanthroline only were employed, because of its limited solubility in aqueous phase) were prepared in PBS with and without calcium at doubling dilutions from 8 mg/ml downwards, and the pH of each solution adjusted to 7. Trypsin substrate (namely Z-L-arginine-4-methyl-7-coumarinylamide HCl) was dissolved in DMSO at a concentration of 0.125 mg/ml, then diluted 100-fold in Ca/PBS buffer. EGTA solutions and phenanthroline were dispensed into the wells of a black microplate (60 ul per well) then 10 ul of trypsin solution was added, followed by 10 ul of substrate. The reaction was allowed to proceed for 30 minutes, and the extent of reaction determined in a fluorescence microplate reader by measuring the fluorescence of the reaction product (coumarin) at excitation wavelength 365 nm, emission 440 nm.

chymotrypsin = conditions: in the presence of calcium ions only, FIG. 4
Protocol: Experiment 1 was repeated, except that chymotrypsin was employed, instead of trypsin, and the experiment was conducted in the presence of calcium ions only.

[2] = in combination with / in the presence of calcium (0.3 mg/ml), FIG. 1 and FIG. 3

T1 sequence (P00761 9-231): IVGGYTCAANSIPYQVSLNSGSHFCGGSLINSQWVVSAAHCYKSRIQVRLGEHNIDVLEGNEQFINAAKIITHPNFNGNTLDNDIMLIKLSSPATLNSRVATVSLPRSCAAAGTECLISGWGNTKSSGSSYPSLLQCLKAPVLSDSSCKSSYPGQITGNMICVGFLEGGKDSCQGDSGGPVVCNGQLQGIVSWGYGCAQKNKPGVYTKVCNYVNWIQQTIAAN

effect on the activity of trypsin ([1]; EDTA alone (no calcium or magnesium), doubling dilutions from 8 mg/ml, FIG. 1): significant inhibitory effect
effect on the activity of trypsin [1, 2]: significant inhibitory effect
effect on the activity of trypsin ([1]; in combination with magnesium (0.5 mg/ml), FIG. 1): significant inhibitory effect
Structure (SMILES): O=C(O)CN(CCN(CC(=O)O)CC(=O)O)CC(=O)O [EDTA]
effect on the protease activity of chymotrypsin (chymotrypsin): inhibitory effect

effect on the activity of trypsin ([1]; EGTA doubling dilutions from 8 mg/ml, presence and absence of calcium ions, FIG. 2): inhibitory effect
Structure (SMILES): O=C(O)CN(CCOCCOCCN(CC(=O)O)CC(=O)O)CC(=O)O [EGTA]

effect on the activity of trypsin [1, 2]: no effect
Structure (SMILES): O=C(O)CC(O)(CC(=O)O)C(=O)O [citrate, citric acid, reference compound]

effect on the activity of trypsin [1, 2]: no inhibitory effect
Structure (SMILES): c1cnc2c(c1)ccc1cccnc12 [phenanthroline, ortho-phenanthroline, reference compound]

Structure (SMILES): [Zn+2] [zinc]
effect of the metal ion on inhibition of trypsin by EDTA or EGTA ([1]; metal ion combined with EDTA or EGTA, calcium and magnesium show inhibition): has no such effect
